In patent US20110082157A1, “Piperidinylamino-Thieno [2,3-D] Pyrimidine Compounds” (priority 2004, published 2011):
Read-outs that look alike come from different tables or passages of the source.

Key:
D2S [1] = target: T1, D2S (Homo sapiens, UniProt P14416); experiment: Functional activity D2S; assay type: cell-based
5HT1A [2] = target: T2, 5HT1A (Homo sapiens, UniProt P08908); experiment: Functional activity 5HT1A; assay type: cell-based
T2 sequence (P08908 1-422): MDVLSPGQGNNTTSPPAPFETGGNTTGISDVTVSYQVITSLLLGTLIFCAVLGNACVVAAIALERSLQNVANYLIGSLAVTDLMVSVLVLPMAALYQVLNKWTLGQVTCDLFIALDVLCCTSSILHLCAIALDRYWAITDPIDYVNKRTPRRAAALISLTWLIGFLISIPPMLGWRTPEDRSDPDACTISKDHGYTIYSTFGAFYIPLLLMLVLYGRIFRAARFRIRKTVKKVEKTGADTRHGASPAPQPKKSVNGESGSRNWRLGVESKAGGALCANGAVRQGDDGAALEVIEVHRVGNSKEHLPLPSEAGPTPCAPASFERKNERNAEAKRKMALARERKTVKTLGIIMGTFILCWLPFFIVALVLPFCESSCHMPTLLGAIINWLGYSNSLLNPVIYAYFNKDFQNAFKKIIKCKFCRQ

D2L = D2L (Homo sapiens, UniProt P14416); experiment: Functional activity D2L; assay type: cell-based
D2L, sequence (P14416 whole entry): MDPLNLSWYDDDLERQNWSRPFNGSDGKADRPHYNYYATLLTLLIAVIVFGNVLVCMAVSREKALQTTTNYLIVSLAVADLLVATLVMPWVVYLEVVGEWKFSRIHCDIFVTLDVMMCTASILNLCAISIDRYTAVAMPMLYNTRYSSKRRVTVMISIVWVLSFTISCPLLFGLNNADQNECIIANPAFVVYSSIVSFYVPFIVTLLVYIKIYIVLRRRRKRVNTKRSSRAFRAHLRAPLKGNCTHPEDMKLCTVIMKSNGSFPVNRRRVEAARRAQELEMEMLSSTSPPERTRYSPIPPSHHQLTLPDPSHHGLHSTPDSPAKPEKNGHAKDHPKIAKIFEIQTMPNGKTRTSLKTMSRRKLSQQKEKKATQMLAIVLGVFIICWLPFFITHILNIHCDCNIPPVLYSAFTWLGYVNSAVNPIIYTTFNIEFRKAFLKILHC

AMES Test = assay type: cell-based
IP3 = experiment: IC50 (IP3); assay type: cell-based
Rat pK = conditions: in vivo; for bioavailability: read-out: Rat pK: % F
D3 = D3 (Homo sapiens, UniProt P35462); experiment: D3 binding (Ki)
D3, sequence (P35462 whole entry): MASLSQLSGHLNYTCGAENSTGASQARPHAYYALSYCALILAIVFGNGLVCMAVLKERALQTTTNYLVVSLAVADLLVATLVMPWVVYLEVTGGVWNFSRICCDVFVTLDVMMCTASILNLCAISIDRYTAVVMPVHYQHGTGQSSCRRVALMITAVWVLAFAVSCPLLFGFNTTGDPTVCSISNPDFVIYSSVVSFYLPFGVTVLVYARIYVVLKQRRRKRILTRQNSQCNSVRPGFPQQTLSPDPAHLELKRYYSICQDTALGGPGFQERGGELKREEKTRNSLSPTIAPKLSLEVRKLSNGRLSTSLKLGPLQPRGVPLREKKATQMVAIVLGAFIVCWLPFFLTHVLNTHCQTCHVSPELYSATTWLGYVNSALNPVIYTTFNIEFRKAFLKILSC

5HT2A [3] = target: T3, 5HT2A (Homo sapiens, UniProt P28223); experiment: Functional activity 5HT2A; assay type: cell-based
T3 sequence (P28223 whole entry, species assumed): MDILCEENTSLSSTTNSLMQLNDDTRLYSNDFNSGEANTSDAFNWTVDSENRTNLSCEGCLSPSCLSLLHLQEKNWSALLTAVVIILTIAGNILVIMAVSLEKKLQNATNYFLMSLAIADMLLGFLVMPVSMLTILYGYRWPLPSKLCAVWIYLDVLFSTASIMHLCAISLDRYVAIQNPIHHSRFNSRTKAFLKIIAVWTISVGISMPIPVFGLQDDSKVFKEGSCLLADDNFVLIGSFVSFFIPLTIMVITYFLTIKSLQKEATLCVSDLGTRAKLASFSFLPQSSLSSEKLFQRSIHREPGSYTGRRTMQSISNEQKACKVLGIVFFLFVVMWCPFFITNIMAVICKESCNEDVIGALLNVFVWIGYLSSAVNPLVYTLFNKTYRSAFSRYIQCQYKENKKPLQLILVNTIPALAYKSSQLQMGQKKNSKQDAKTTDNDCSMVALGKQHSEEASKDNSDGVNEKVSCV

D4.4 = target: T4, D4.4 (Homo sapiens, UniProt P21917); experiment: D4.4 binding (Ki)
T4 sequence (P21917 1-419): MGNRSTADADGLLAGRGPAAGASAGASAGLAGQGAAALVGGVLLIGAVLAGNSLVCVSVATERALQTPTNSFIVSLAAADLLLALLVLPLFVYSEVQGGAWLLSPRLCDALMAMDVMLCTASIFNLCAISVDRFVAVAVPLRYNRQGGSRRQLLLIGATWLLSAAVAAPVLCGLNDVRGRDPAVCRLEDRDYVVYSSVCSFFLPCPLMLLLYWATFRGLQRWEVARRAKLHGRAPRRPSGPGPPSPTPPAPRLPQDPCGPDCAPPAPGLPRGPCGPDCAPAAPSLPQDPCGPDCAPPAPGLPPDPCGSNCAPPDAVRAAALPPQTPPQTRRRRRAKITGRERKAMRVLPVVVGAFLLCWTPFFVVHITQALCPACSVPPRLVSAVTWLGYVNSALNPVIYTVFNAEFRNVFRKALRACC

D2S [4] = target: T1, D2S; experiment: D2S binding (Ki)
hERG = hERG (Homo sapiens, UniProt Q12809); experiment: hERG % inhibition at 1 uM
hERG, sequence (Q12809 whole entry): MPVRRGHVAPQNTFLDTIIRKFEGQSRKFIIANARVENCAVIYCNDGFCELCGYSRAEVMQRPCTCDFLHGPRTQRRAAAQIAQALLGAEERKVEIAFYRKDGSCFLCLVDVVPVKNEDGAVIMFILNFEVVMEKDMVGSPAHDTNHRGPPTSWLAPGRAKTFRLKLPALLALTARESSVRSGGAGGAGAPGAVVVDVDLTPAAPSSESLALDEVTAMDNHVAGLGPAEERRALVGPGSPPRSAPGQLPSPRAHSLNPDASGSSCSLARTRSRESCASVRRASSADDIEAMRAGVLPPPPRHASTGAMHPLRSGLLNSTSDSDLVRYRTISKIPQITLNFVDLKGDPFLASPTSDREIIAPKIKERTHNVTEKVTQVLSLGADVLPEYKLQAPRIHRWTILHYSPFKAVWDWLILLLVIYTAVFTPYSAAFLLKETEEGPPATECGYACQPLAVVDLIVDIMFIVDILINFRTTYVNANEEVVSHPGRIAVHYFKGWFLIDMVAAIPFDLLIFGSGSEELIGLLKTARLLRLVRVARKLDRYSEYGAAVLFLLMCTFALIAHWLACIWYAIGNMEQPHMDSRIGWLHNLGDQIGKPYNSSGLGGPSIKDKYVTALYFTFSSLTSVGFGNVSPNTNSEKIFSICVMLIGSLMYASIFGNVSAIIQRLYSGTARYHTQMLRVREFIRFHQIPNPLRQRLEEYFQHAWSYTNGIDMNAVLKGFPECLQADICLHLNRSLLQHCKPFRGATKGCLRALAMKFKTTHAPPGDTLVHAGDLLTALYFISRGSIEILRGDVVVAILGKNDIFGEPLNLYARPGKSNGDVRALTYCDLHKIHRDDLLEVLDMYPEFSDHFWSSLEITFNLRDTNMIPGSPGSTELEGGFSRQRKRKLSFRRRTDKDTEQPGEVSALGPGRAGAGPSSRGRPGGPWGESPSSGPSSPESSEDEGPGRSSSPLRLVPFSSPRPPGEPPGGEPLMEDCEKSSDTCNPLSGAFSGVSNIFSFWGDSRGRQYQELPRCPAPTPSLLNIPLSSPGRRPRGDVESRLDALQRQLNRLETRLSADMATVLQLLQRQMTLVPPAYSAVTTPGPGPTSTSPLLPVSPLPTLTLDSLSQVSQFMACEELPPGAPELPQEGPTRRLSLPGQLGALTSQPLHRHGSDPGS

5HT2B = 5HT2B (Homo sapiens, UniProt P41595); experiment: Functional activity IC50 (5HT2B antagonist); assay type: cell-based
5HT2B, sequence (P41595 whole entry, species assumed): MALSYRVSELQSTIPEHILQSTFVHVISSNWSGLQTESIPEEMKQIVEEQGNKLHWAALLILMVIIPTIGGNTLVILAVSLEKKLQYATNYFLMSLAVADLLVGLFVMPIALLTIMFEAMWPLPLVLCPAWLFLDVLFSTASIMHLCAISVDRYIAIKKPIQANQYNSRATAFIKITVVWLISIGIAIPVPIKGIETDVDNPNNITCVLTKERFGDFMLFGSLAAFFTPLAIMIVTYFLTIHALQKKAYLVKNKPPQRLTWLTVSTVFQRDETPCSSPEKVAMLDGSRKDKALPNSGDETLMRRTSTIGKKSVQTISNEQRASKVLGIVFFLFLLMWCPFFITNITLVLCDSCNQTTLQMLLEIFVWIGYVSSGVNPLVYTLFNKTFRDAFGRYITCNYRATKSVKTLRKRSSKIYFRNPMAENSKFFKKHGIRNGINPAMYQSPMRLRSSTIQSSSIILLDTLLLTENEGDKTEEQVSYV

5HT1A [5] = target: T2, 5HT1A; experiment: 5HT1A binding (Ki)
s 1 = s 1 (Homo sapiens, UniProt Q99720); experiment: s 1 binding (Ki)
s 1, sequence (Q99720 whole entry): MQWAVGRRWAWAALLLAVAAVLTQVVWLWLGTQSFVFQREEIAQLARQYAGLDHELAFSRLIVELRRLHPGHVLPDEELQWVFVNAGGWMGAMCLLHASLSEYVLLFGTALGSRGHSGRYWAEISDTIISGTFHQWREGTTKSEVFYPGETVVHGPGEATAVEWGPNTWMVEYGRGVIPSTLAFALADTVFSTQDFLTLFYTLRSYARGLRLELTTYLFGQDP

Na chan = experiment: Na channel binding (Ki)
5HT2A [6] = target: T3, 5HT2A; experiment: 5HT2A binding (Ki)
% Protein Binding = assay type: in vitro ADME
Mouse pK = conditions: in vivo
D2 = D2 (Homo sapiens, UniProt P14416); experiment: Functional activity D2 (agonist / antagonist); assay type: cell-based
D2, sequence (P14416 whole entry): as the sequence (P14416 whole entry) above

HLM T1/2 = conditions: human, liver microsomes
D1 = D1 (Homo sapiens, UniProt P21728); experiment: D1 binding (Ki)
D1, sequence (P21728 whole entry): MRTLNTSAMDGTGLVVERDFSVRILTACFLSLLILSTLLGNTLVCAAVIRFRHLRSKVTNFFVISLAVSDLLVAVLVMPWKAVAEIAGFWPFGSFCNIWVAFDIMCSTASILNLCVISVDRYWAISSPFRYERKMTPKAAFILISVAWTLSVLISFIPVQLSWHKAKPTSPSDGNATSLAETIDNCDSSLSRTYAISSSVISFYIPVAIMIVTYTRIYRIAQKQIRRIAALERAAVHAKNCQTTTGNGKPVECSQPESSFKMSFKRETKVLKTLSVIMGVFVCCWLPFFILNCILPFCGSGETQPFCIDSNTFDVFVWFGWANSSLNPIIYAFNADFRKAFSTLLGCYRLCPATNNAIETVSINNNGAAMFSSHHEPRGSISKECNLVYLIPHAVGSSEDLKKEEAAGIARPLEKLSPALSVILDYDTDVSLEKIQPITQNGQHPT

[7] = iv, read-out: Rat pK: T1/2 (iv)
[8] = po, read-out: Rat pK: T1/2 (po)

T1 sequence (P14416 1-414 isoform P14416-2): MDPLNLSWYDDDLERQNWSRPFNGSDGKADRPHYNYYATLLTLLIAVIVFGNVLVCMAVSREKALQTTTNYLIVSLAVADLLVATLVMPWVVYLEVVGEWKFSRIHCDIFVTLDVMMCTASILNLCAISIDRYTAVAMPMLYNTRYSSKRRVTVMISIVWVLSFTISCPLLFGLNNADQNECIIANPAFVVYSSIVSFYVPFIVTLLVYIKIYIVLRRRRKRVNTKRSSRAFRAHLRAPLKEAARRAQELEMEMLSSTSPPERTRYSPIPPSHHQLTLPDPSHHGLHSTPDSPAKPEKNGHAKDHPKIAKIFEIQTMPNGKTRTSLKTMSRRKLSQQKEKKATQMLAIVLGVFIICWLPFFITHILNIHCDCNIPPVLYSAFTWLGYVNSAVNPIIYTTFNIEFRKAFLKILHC

| Structure (SMILES) | AMES Test (AMES Test) | IC50 (IP3) [µM] | half-life (Rat pK; [7]) [min] | bioavailability (Rat pK; po) [%] | half-life (Rat pK; [8]) [min] | Ki (D3) [µM] | Ki (D4.4) [µM] | hERG (% Inhibition at 1 uM) (hERG) [%] | IC50 (5HT2B) [µM] | Ki (5HT1A [5]) [µM] | Ki (s 1) [µM] | Ki (Na chan) [µM] | fraction unbound (% Protein Binding) | further results |
| --- | --- | --- | --- | --- | --- | --- | --- | --- | --- | --- | --- | --- | --- | --- |
| Fc1cccc(CN2CCC(Nc3ncnc4sc(Cl)cc34)CC2)c1.O=C(O)/C=C\C(=O)O [Example B42, N-(1-(3-fluorobenzyl)piperidin-4-yl)-6-chlorothieno[2,3-d]pyrimidin-4-amine, monomaleate] | Negative | 0.0017 | 24 | 22.4 | 72 | 0.026 | 0.0047 | 50.1 | 0.11 | 0.017 | 0.0067 | 0.25 | 0.017 | IC50 (D2S [1]): 0.292 µM; Functional Activity IC50 (5HT1A) (5HT1A [2]): Not Active; IC50 (D2L): 0.162 µM; IC50 (5HT2A [3]): 0.34 µM; Ki (D2S [4]; NA: Not Active): 0.17 µM; Ki (5HT2A [6]): 0.052 µM |
| N#Cc1cccc(CN2CCC(Nc3ncnc4sc(Cl)cc34)CC2)c1 [Example B43, 3-((4-(6-chlorothieno [2,3-d]pyrimidin-4-ylamino)piperidin-1-yl)methyl) benzonitrile, monomaleate] | Negative | 0.00148 | 44.4 | 17.2 | 91.8 | 1.3 | 0.025 | 47.3 | 0.0175 | 0.28 | 0.011 | 0.97 | 0.018 | bioavailability (Mouse pK; ip, read-out: Mouse pK: % F): 87%; half-life (Mouse pK; ip, read-out: Mouse pK: T1/2 (ip)): 30 min; half-life (Mouse pK; iv, read-out: Mouse pK: T1/2 (iv)): 26 min; Ki (D2S [4]): 1 µM; EC50 (D2; agonist): 0.92 µM; IC50 (D2) (D2; antagonist): No antagonist activity; half-life (HLM T1/2): 22 min; Ki (D1): 1.2 µM |
